Reference: publication PMC6364417, “Kinase inhibitor library screening identifies synergistic drug combinations effective in sensitive and resistant melanoma cells” (Journal of Experimental & Clinical Cancer Research : CR, 2019)
Counter-ions that a name gives are not always drawn.

How the values were obtained:
Assay in all cases: Kinase inhibitor library screening, PrestoBlue cell viability, 1 or 10 μM, 72 h
501Mel cells (parental) = conditions: 72 h; for viability at 1 µM / viability at 10 µM: Homo sapiens; for viability at 1 µM: read-out: cell viability, 501Mel Parental, 1μΜ; for viability at 10 µM: read-out: cell viability, 501Mel Parental, 10μΜ
Protocol: (§1) After 72 h of treatment, cell viability was assessed using the PrestoBlue Cell Viability Reagent (ThermoFisher Scientific). Measurements were performed with the CLARIOstar Monochromator microplate reader (BMG Labtech).
(§2) Kinase inhibitor library screening. […] Each cell line was treated in its sensitive form (parental), and also as 2 resistant derivatives, which were made resistant to either Vemurafenib (XP) or Dabrafenib (GP). Drugs were added at 2 different concentrations, 1 and 10 μM, for 72 h and cell viability was assessed using the PrestoBlue Cell Viability assay. Results are depicted as % viability compared to untreated cells. Each cell line was analyzed at least in duplicate. […] (XLSX 95 kb)

[1] = system: 501Mel-GP cells (Dabrafenib-resistant); conditions: 72 h; for viability at 1 µM / viability at 10 µM: Homo sapiens; for viability at 1 µM: read-out: cell viability, 501Mel GP, 1μΜ; for viability at 10 µM: read-out: cell viability, 501Mel GP, 10μΜ
Protocol: as §1, §2

[2] = system: 501Mel-XP cells (Vemurafenib-resistant); conditions: 72 h; for viability at 1 µM / viability at 10 µM: Homo sapiens; for viability at 1 µM: read-out: cell viability, 501Mel XP, 1μΜ; for viability at 10 µM: read-out: cell viability, 501Mel XP, 10μΜ
Protocol: as §1, §2

A375 cells (parental) = conditions: for Cell viability in kinase inhibitor library screening, A375 Parental, 10μΜ / Cell viability in kinase inhibitor library screening, A375 Parental, 1μΜ: 72 h; for viability at 1 µM / viability at 10 µM: Homo sapiens, A-375, 72 h; for viability at 1 µM: read-out: cell viability, A375 Parental, 1μΜ; for viability at 10 µM: read-out: cell viability, A375 Parental, 10μΜ
Protocol: as §1, §2

[3] = system: A375-GP cells (Dabrafenib-resistant); conditions: for viability at 1 µM / viability at 10 µM: Homo sapiens, A-375, 72 h; for viability at 1 µM: read-out: cell viability, A375 GP, 1μΜ; for viability at 10 µM: read-out: cell viability, A375 GP, 10μΜ
Protocol: as §1, §2

[4] = system: A375-XP cells (Vemurafenib-resistant); conditions: for viability at 1 µM / viability at 10 µM: Homo sapiens, A-375, 72 h; for viability at 1 µM: read-out: cell viability, A375 XP, 1μΜ; for viability at 10 µM: read-out: cell viability, A375 XP, 10μΜ
Protocol: as §1, §2

IGR37 cells (parental) = conditions: for viability at 1 µM / viability at 10 µM: Homo sapiens, IGR-37, 72 h; for viability at 1 µM: read-out: cell viability, IGR37 Parental, 1μΜ; for viability at 10 µM: read-out: cell viability, IGR37 Parental, 10μΜ
Protocol: as §1, §2

[5] = system: IGR37-GP cells (Dabrafenib-resistant); conditions: for Cell viability in kinase inhibitor library screening, IGR37 GP, 10μΜ / Cell viability in kinase inhibitor library screening, IGR37 GP, 1μΜ: 72 h; for Cell viability in kinase inhibitor library screening, IGR37 GP, 1μΜ: in %; for viability at 1 µM / viability at 10 µM: Homo sapiens, IGR-37, 72 h; for viability at 1 µM: read-out: cell viability, IGR37 GP, 1μΜ; for viability at 10 µM: read-out: cell viability, IGR37 GP, 10μΜ
Protocol: as §1, §2

[6] = system: IGR37-XP cells (Vemurafenib-resistant); conditions: for viability at 1 µM / viability at 10 µM: Homo sapiens, IGR-37, 72 h; for viability at 1 µM: read-out: cell viability, IGR37 XP, 1μΜ; for viability at 10 µM: read-out: cell viability, IGR37 XP, 10μΜ
Protocol: as §1, §2

Compound | Cell viability in kinase inhibitor library screening, 501Mel Parental, 10μΜ (501Mel cells (parental); 501Mel Parental, in %) | Cell viability in kinase inhibitor library screening, 501Mel GP, 10μΜ ([1]; 501Mel GP, in %) | Cell viability in kinase inhibitor library screening, 501Mel XP, 10μΜ ([2]; 501Mel XP, in %) | Cell viability in kinase inhibitor library screening, A375 Parental, 10μΜ (A375 cells (parental)) | Cell viability in kinase inhibitor library screening, A375 Parental, 1μΜ (A375 cells (parental)) | Cell viability in kinase inhibitor library screening, A375 GP, 10μΜ ([3]; A375 GP, 72 h) | Cell viability in kinase inhibitor library screening, A375 XP, 1μΜ ([4]; A375 XP, 72 h) | Cell viability in kinase inhibitor library screening, IGR37 Parental, 10μΜ (IGR37 cells (parental); IGR37 Parental, 72 h, in %) | Cell viability in kinase inhibitor library screening, IGR37 GP, 10μΜ [5] [%] | Cell viability in kinase inhibitor library screening, IGR37 GP, 1μΜ [5] | Cell viability in kinase inhibitor library screening, IGR37 XP, 10μΜ ([6]; IGR37 XP, 72 h) [%] | viability at 1 µM (501Mel cells (parental)) [%] | viability at 10 µM (501Mel cells (parental)) [%] | viability at 1 µM [1] [%] | viability at 10 µM [1] [%] | viability at 1 µM [2] [%] | viability at 10 µM [2] [%] | viability at 1 µM (A375 cells (parental)) [%] | viability at 10 µM (A375 cells (parental)) [%] | viability at 1 µM [3] [%] | further results
Nc1nc(N)c2nc(-c3cccc(O)c3)c(-c3cccc(O)c3)nc2n1 [TG100-115] | 89.6 | 81.4 | 81.6 | 88.3 | 100.3 | 91.7 | 103.9 | 98.5 | 89.4 | 96.0 | 70.9 |  |  |  |  |  |  |  |  |  | Cell viability in kinase inhibitor library screening, 501Mel Parental, 1μΜ (501Mel cells (parental); 501Mel Parental, 1μΜ, in %): 99.2; Cell viability in kinase inhibitor library screening, 501Mel GP, 1μΜ ([1]; 501Mel GP, 1μΜ, in %): 107.0; Cell viability in kinase inhibitor library screening, 501Mel XP, 1μΜ ([2]; 501Mel XP, 1μΜ, in %): 97.0; Cell viability in kinase inhibitor library screening, A375 GP, 1μΜ ([3]; A375 GP, 1μΜ, 72 h): 100.0; Cell viability in kinase inhibitor library screening, IGR37 Parental, 1μΜ (IGR37 cells (parental); IGR37 Parental, 1μΜ, 72 h, in %): 97.1
C=CC(=O)Nc1cccc(Oc2nc(Nc3ccc(N4CCN(C)CC4)cc3OC)ncc2Cl)c1 [WZ4002] |  |  |  |  |  |  |  |  |  |  |  | 107 | -0.0492 | 109 | -0.074 | 104 | -0.3 | 103 | 23.8 | 96.3 | viability at 10 µM [3]: 3.9%; viability at 1 µM [4]: 104%; viability at 10 µM [4]: 6%; viability at 1 µM (IGR37 cells (parental)): 101%; viability at 10 µM (IGR37 cells (parental)): 2%; viability at 1 µM [5]: 91.8%; viability at 10 µM [5]: 16.7%; viability at 1 µM [6]: 85.2%; viability at 10 µM [6]: 1.4%
C#Cc1cccc(Nc2ncnc3cc(OCCOC)c(OCCOC)cc23)c1 [Erlotinib HCl] |  |  |  |  |  |  |  |  |  |  |  | 97.2 | 84.3 | 95 | 61.2 | 86.3 | 38 | 100 | 73.4 | 96.2 | viability at 10 µM [3]: 69.1%; viability at 1 µM [4]: 100%; viability at 10 µM [4]: 83.4%; viability at 1 µM (IGR37 cells (parental)): 95.5%; viability at 10 µM (IGR37 cells (parental)): 92%; viability at 1 µM [5]: 93.1%; viability at 10 µM [5]: 67.5%; viability at 1 µM [6]: 92.4%; viability at 10 µM [6]: 51.9%
O=C1NC(=O)/C(=C/c2ccc3c(c2)OC(F)(F)O3)S1 [AS-604850] | 104.4 | 91.8 | 90.1 | 95.5 | 104.7 | 98.8 | 109.0 | 108.6 | 98 | 103.0 | 80.4 |  |  |  |  |  |  |  |  |  | Cell viability in kinase inhibitor library screening, A375 XP, 10μΜ ([4]; A375 XP, 10μΜ, 72 h): 106.1; Cell viability in kinase inhibitor library screening, IGR37 XP, 1μΜ ([6]; IGR37 XP, 1μΜ, 72 h, in %): 91.9
